Assay results taken from patent publication US20230146395A1, “Substituted Pyrimidines and Uses Thereof” (Verge Analytics, Inc., priority 2020, published 2023).
Structures can show the parent of a compound that is named as a salt.

What was measured:
PI3Kγ = target: T1, PI3Kγ (Homo sapiens, UniProt P48736); assay: Inhibition of PI3K isoforms: PI3Kγ (microfluidic electrophoresis kinase assay, PIP2/PS substrate); format: biochemical; conditions: p120γ, ATP 100 μM; read-out: PI3Kg IC50
T1 construct: Full length N-terminal; His (N); host or cells: SF9 cells (baculovirus)
T1 sequence (P48736 whole entry, canonical isoform): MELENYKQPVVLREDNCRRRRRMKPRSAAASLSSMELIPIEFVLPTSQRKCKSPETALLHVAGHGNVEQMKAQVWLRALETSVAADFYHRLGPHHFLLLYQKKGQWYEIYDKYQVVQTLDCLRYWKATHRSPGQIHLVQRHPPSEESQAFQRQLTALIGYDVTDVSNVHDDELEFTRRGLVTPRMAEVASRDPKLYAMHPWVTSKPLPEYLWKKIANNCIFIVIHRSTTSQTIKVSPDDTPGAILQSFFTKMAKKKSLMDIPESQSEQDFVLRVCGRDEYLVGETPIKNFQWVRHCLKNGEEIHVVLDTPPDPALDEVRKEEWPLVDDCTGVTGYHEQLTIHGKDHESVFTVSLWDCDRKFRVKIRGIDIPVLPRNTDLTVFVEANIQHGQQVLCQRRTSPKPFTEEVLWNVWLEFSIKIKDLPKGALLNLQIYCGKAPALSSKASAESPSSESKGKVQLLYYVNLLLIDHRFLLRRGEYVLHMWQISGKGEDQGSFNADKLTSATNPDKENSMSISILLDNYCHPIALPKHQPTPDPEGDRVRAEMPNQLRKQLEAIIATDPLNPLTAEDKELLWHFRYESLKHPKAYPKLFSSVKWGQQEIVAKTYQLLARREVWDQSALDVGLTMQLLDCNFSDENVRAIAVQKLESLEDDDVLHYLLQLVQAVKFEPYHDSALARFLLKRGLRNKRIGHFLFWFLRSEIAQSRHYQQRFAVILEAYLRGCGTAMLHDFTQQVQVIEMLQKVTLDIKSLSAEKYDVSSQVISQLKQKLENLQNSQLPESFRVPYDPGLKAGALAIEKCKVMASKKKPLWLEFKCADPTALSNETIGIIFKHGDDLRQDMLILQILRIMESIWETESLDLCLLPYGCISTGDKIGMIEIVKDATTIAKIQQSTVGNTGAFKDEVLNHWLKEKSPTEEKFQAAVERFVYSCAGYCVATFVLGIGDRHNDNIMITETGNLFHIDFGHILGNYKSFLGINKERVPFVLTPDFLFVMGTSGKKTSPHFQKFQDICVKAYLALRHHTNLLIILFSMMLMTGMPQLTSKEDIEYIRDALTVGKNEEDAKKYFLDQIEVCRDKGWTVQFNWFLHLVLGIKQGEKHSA
Experimental: The kinase substrate was prepared by mixing and sonicating fluorescently-labeled phosphatidylinositol 4,5-phosphate (PIP2) with phospho-L-serine (PS) at 1:20 ratio in 50 mM HEPES buffer pH7.5.
The kinase reactions were assembled in 384-well plates (Greiner) in a total volume of […] as follows. The kinase proteins were pre-diluted in an assay buffer comprising 50 mM HEPES, pH 7.5, 0.012% CHAPS, 1 mM DTT, 10 mM Na3VaO4, 10 mM 3-GP, 3 mM MgCl2, and 40 mM NaCl2, and dispensed into a 384-well plate (10 μL per well). Test compounds were serially pre-diluted in DMSO and added to the protein samples by acoustic dispensing (Labcyte Echo). The concentration of DMSO was equalized to 1% in all samples. All test compounds were tested at 12 concentrations. […] Terminated plates were analyzed on a microfluidic electrophoresis instrument (Caliper LabChip® 3000, Caliper Life Sciences/Perkin Elmer). The change in the relative fluorescence intensity of the PI(4,5)P substrate and PI(3,4,5)P product peaks was measured. The activity in each test sample was determined as the product to sum ratio (PSR): P/(S+P), where P is the peak height of the product, and S is the peak height of the substrate. Percent inhibition (Pinh) was determined using the following equation: […]

[1] = test system: HEK 293T transfected with plasmids containing TDP-43 Q331K mutation; assay: HEK/TDP Survival assay (Cell-Titer-Glo, 48 hrs, maximal effect of rescue); format: cell-based; conditions: Homo sapiens, HEK 293T with TDP-43 Q331K, (n) in brackets
Summary of the method: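 Cells transfected with TDP-43 Q331K, treated 48 h at eight concentrations (6 replicates); ATP read by CellTiter-Glo luminescence versus untreated wells on each plate. Effect per dose as Hedge's g with Empirical Bayes false-sign-rate correction (signed log s >3 = hit); value is maximal rescue from the dose-response curve.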

c1ccc(-c2cc(Nc3nc(N4CCOCC4)c4oc(-c5ccncc5)cc4n3)[nH]n2)cc1 [Compound 1, 4-morpholino-N-(3-phenyl-1H-pyrazol-5-yl)-6-(pyridin-4-yl)furo[3,2-d]pyrimidin-2-amine hydrochloride]
IC50 (PI3Kγ): > 10 µM
EC50 [1]: 14 nM
